Test results published in ChEMBL document CHEMBL1641504, “Characterization and anions inhibition studies of an α-carbonic anhydrase from the teleost fish Dicentrarchus labrax” (Bioorg Med Chem, 2011).

How the values were obtained:
[1] = biological target: Carbonic anhydrase 9 (Homo sapiens, UniProt Q16790)
Description: Inhibition of human carbonic anhydrase 9 by Lineweaver-Burk curves

[2] = biological target: Carbonic anhydrase 5A, mitochondrial (Homo sapiens, UniProt P35218)
Description: Inhibition of human carbonic anhydrase 5 by Lineweaver-Burk curves

[3] = biological target: Carbonic anhydrase 1 (Homo sapiens, UniProt P00915)
Description: Inhibition of human carbonic anhydrase 1 by Lineweaver-Burk curves

[4] = biological target: Carbonic anhydrase 4 (Homo sapiens, UniProt P22748)
Description: Inhibition of human carbonic anhydrase 4 by Lineweaver-Burk curves

[5] = biological target: Carbonic anhydrase 2 (Homo sapiens, UniProt P00918)

Sequence of Carbonic anhydrase 1 (P00915 whole entry): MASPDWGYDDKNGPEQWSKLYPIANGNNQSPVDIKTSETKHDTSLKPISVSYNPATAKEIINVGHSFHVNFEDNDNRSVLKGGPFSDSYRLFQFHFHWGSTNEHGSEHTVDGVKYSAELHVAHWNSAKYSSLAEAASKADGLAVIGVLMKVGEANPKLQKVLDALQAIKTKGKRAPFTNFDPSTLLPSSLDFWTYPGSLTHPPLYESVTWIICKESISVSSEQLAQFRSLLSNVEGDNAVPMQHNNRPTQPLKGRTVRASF
Sequence of Carbonic anhydrase 4 (P22748 whole entry): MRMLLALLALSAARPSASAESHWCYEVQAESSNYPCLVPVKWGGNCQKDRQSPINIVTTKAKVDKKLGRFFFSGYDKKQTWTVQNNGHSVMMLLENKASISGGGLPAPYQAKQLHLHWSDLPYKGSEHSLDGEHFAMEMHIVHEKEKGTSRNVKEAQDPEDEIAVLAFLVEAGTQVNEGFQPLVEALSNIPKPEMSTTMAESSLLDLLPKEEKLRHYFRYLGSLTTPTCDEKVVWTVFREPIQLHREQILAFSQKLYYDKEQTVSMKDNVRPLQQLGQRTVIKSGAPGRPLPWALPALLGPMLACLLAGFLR
Sequence of Carbonic anhydrase 5A, mitochondrial (P35218 whole entry): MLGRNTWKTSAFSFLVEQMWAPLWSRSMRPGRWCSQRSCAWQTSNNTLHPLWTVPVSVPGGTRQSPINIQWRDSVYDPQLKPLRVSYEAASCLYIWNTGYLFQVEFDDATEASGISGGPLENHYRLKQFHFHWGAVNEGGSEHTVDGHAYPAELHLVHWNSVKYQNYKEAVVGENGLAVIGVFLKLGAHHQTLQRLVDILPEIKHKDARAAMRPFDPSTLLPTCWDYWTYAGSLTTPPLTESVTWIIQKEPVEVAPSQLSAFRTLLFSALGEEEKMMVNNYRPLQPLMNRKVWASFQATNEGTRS

Row | Structure (SMILES) | Ki [1] | Ki [2] | Ki [3] | Ki [4] | Ki [5]
1 | O=[N+]([O-])[O-].[K+] [POTASSIUM NITRATE] | 46 mM | 16 mM | 7 mM | 58.7 mM | 
2 | N#C[S-].[Na+] [THIOCYANATE SODIUM] | 0.13 mM | 0.74 mM |  | 39 mM | 
3 | O=S(=O)([O-])[O-].[Na+].[Na+] [SODIUM SULFATE ANHYDROUS] |  | 680 mM |  | 9 mM | 
4 | [I-].[K+] [POTASSIUM IODIDE] | 7 mM | 25 mM | 0.3 mM | 0.08 mM | 
5 | O=NO [SODIUM NITRITE] |  | 16 mM |  |  | 
6 | [N-]=[N+]=[N-] [SODIUM AZIDE] | 0.005 mM | 0.3 mM |  |  | 
7 | [Cl-].[K+] [POTASSIUM CHLORIDE] | 33 mM | 156 mM | 6 mM | 0.09 mM | > 200 mM
8 | [Br-].[K+] [POTASSIUM BROMIDE] | 16 mM | 50 mM | 4 mM | 0.09 mM | 
9 | [F-].[K+] [POTASSIUM FLUORIDE] | 48 mM | 241 mM |  | 0.07 mM | 
